{"source": "ChEMBL document CHEMBL5620354", "about": "“Development of isoselenazolium chlorides as selective pyruvate kinase isoform M2 inhibitors” (Eur J Med Chem, 2023)", "key": {"4T1 [1]": {"tested_on": "4T1", "assay": "Induction of ROS production in mouse 4T1 cells at 1 uM in presence of pyruvate and malate by high-resolution fluorespirometry analysis", "assay_type": "functional, cell-based"}, "Jurkat [2]": {"tested_on": "Jurkat", "assay": "Induction of mitochondrial respiration in human Jurkat cells assessed as increase in oxygen consumption rate at 1 uM in presence of LEAK state by high-resolution fluorespirometry analysis", "assay_type": "functional, cell-based"}, "4T1 [3]": {"tested_on": "4T1", "assay": "Induction of ROS production in mouse 4T1 cells assessed as decrease in NADH level at 1 uM incubated for 20 mins by fluorescence cell counter analysis", "assay_type": "functional", "set-up": "scale not given: the % may be the effect or the level left"}, "Jurkat [4]": {"tested_on": "Jurkat", "assay": "Induction of mitochondrial respiration in human Jurkat cells assessed as increase in oxygen consumption rate at 1 uM in presence of OXPHOS state by high-resolution fluorespirometry analysis", "assay_type": "functional, cell-based"}, "Pyruvate kinase PKM [5]": {"target": "T1, Pyruvate kinase PKM (Homo sapiens, UniProt P14618)", "assay": "Inhibition of PKM2 (unknown origin) by ITC analysis"}, "MCF7 [6]": {"tested_on": "MCF7", "assay": "Induction of mitochondrial respiration in human MCF7 cells assessed as increase in oxygen consumption rate at 1 uM in presence of OXPHOS state by high-resolution fluorespirometry analysis", "assay_type": "functional, cell-based"}, "Pyruvate kinase PKM [7]": {"target": "T1, Pyruvate kinase PKM", "assay": "Inhibition of N-terminal his8-tagged PKM2 (unknown origin) in presence of FBP by Michaelis-menten analysis"}, "Jurkat [8]": {"tested_on": "Jurkat", "assay": "Cytotoxicity against human Jurkat cells assessed as inhibition of cell growth incubated for 48 hrs by MTT assay", "assay_type": "functional, cell-based"}, "4T1 [9]": {"tested_on": "4T1", "assay": "Downregulation of PKM2 mRNA expression in mouse 4T1 cells at 0.25 to 0.5 uM incubated for 24 hrs by qPCR analysis", "assay_type": "functional, cell-based", "details": "dose 0.25-0.5 µM"}, "Jurkat [10]": {"tested_on": "Jurkat", "assay": "Induction of ROS production in human Jurkat cells at 1 uM in presence of pyruvate and malate by high-resolution fluorespirometry analysis", "assay_type": "functional, cell-based"}, "[11]": {"assay": "Downregulation of PKM2 mRNA expression in human HCC1937 cells assessed as fold change at 0.5 uM incubated for 24 hrs by qPCR analysis", "assay_type": "functional"}, "[12]": {"assay": "Cytotoxicity against rat H9c2 cells assessed as inhibition of cell growth incubated for 48 hrs by MTT assay", "assay_type": "toxicity, cell-based"}, "MCF7 [13]": {"tested_on": "MCF7", "assay": "cells", "details": "Homo sapiens, MCF7, 48 h", "description": "Cytotoxicity against human MCF7 cells assessed as inhibition of cell growth incubated for 48 hrs by MTT assay"}, "Oryctolagus cuniculus": {"organism": "Oryctolagus cuniculus", "assay": "Inhibition of rabbit LDH at 1 uM relative to control"}, "HCC1937 [14]": {"tested_on": "HCC1937", "assay": "Downregulation of PKM1 mRNA expression in human HCC1937 cells at 0.25 to 5 uM incubated for 24 hrs by qPCR analysis", "assay_type": "functional, cell-based", "details": "dose 0.25-5 µM"}, "[15]": {"target": "Pyruvate kinase PKLR (Homo sapiens) (UniProt P30613)", "sequence (P30613 whole entry, looked up)": "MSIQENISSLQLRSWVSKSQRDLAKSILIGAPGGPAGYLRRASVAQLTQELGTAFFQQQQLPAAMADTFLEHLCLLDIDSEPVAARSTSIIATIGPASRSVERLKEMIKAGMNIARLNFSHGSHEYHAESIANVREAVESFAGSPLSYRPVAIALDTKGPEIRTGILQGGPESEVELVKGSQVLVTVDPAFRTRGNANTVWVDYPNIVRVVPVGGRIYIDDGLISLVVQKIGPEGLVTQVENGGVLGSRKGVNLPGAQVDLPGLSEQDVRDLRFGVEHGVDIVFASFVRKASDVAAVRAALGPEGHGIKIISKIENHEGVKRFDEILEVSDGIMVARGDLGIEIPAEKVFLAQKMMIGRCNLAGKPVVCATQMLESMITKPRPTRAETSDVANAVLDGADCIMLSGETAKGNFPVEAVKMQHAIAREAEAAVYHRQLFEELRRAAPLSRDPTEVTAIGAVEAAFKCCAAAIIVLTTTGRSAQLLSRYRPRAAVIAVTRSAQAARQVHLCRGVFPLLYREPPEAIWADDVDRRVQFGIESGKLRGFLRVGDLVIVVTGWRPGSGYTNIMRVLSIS", "assay": "Inhibition of PKR (unknown origin) at 1 uM relative to control"}, "4T1 [16]": {"tested_on": "4T1", "assay": "Induction of ROS production in mouse 4T1 cells assessed as decrease in NAD+/NADH ratio at 1 uM incubated for 20 mins by fluorescence cell counter analysis", "assay_type": "functional, cell-based"}, "A549": {"tested_on": "A549", "assay": "cells", "details": "Homo sapiens, A549, 48 h", "description": "Cytotoxicity against human A549 cells assessed as inhibition of cell growth incubated for 48 hrs by MTT assay"}, "MCF7 [17]": {"tested_on": "MCF7", "assay": "Induction of ROS production in human MCF7 cells at 1 uM in presence of pyruvate and malate by high-resolution fluorespirometry analysis", "assay_type": "functional, cell-based"}, "HCC1937 [18]": {"tested_on": "HCC1937", "assay": "Induction of ROS production in human HCC1937 cells at 1 uM in presence of pyruvate and malate by high-resolution fluorespirometry analysis", "assay_type": "functional, cell-based"}, "MCF7 [19]": {"tested_on": "MCF7", "assay": "Induction of mitochondrial respiration in human MCF7 cells assessed as increase in oxygen consumption rate at 1 uM in presence of LEAK state by high-resolution fluorespirometry analysis", "assay_type": "functional, cell-based"}, "4T1 [20]": {"tested_on": "4T1", "assay": "Induction of ROS production in mouse 4T1 cells assessed as decrease in NAD+ level at 1 uM incubated for 20 mins by fluorescence cell counter analysis", "assay_type": "functional", "set-up": "scale not given: the % may be the effect or the level left"}, "HCC1937 [21]": {"tested_on": "HCC1937", "assay": "Cytotoxicity against human HCC1937 cells assessed as inhibition of cell growth incubated for 48 hrs by MTT assay", "assay_type": "functional, cell-based", "details": "HCC1937, 48 h"}, "4T1 [22]": {"tested_on": "4T1", "assay": "Induction of mitochondrial respiration in mouse 4T1 cells assessed as increase in oxygen consumption rate at 1 uM in presence of LEAK state by high-resolution fluorespirometry analysis", "assay_type": "functional, cell-based"}, "MDA-MB-231": {"tested_on": "MDA-MB-231", "assay": "Cytotoxicity against human MDA-MB-231 cells assessed as inhibition of cell growth incubated for 48 hrs by MTT assay", "assay_type": "functional, cell-based", "details": "MDA-MB-231, 48 h"}, "H9c2 [23]": {"tested_on": "H9c2", "assay": "Induction of ROS production in rat H9c2 cells assessed as decrease in NADH level at 1 uM incubated for 20 mins by fluorescence cell counter analysis", "assay_type": "functional, cell-based"}, "HCC1937 [24]": {"tested_on": "HCC1937", "assay": "Induction of mitochondrial respiration in human HCC1937 cells assessed as increase in oxygen consumption rate at 1 uM in presence of OXPHOS state by high-resolution fluorespirometry analysis", "assay_type": "functional, cell-based"}, "Pyruvate kinase PKM [25]": {"target": "T1, Pyruvate kinase PKM", "assay": "Inhibition of N-terminal his8-tagged PKM2 (unknown origin)"}, "[26]": {"assay": "Binding affinity to Sprague-Dawley rat liver Cardiolipin incubated for 10 mins by microplate reader analysis", "assay_type": "tissue-based"}, "4T1 [27]": {"tested_on": "4T1", "assay": "Induction of mitochondrial respiration in mouse 4T1 cells assessed as increase in oxygen consumption rate at 1 uM in presence of OXPHOS state by high-resolution fluorespirometry analysis", "assay_type": "functional, cell-based"}, "[28]": {"assay": "Downregulation of PKM2 mRNA expression in human HCC1937 cells assessed as fold change at 0.25 uM incubated for 24 hrs by qPCR analysis", "assay_type": "functional"}, "H9c2 [29]": {"tested_on": "H9c2", "assay": "Induction of ROS production in rat H9c2 cells assessed as decrease in NAD+/NADH ratio at 1 uM incubated for 20 mins by fluorescence cell counter analysis", "assay_type": "functional, cell-based"}, "4T1 [30]": {"tested_on": "4T1", "assay": "Cytotoxicity against mouse 4T1 cells assessed as inhibition of cell growth incubated for 48 hrs by MTT assay", "assay_type": "functional, cell-based", "details": "4T1, 48 h, read-out: IC50"}, "H9c2 [31]": {"tested_on": "H9c2", "assay": "Induction of ROS production in rat H9c2 cells assessed as decrease in NAD+ level at 1 uM incubated for 20 mins by fluorescence cell counter analysis", "assay_type": "functional, cell-based"}, "Pyruvate kinase PKM [32]": {"target": "T1, Pyruvate kinase PKM", "assay": "Inhibition of PKM1 (unknown origin)", "set-up": "concentration or dose not given beside the values", "details": "concentration not given here"}, "HCC1937 [33]": {"tested_on": "HCC1937", "assay": "Induction of mitochondrial respiration in human HCC1937 cells assessed as increase in oxygen consumption rate at 1 uM in presence of LEAK state by high-resolution fluorespirometry analysis", "assay_type": "functional, cell-based"}, "Pyruvate kinase PKM [34]": {"target": "T1, Pyruvate kinase PKM", "assay": "Inhibition of PKM2 (unknown origin) assessed as increase in tetramer ratio by analytical size-exclusion chromatography", "details": "dose 5.0 µM"}}, "note": "Active and inactive are the calls of the source. The calls are words filed in the database; no cut-off is given here.", "data": [{"smiles": "COC(=O)c1cc[n+]2[se]c(C3(O)CCCCC3)c(Br)c2c1.[Cl-]", "values": [{"measurement": "Activity", "setting": "4T1 [1]", "result": "Active"}, {"measurement": "Activity", "setting": "Jurkat [2]", "result": "Active"}, {"measurement": "Activity", "setting": "4T1 [3]", "result": 57.4, "unit": "%"}, {"measurement": "Activity", "setting": "Jurkat [4]", "result": "Active"}, {"measurement": "IC50", "setting": "Pyruvate kinase PKM [5]", "result": 0.25, "unit": "µM"}, {"measurement": "Activity", "setting": "MCF7 [6]", "result": "Active"}, {"measurement": "IC50", "setting": "Pyruvate kinase PKM [7]", "result": 0.477, "unit": "µM"}, {"measurement": "IC50", "setting": "Jurkat [8]", "result": 0.44, "unit": "µM"}, {"measurement": "Activity", "setting": "4T1 [9]", "result": "Active"}, {"measurement": "Activity", "setting": "Jurkat [10]", "result": "Active"}, {"measurement": "fold change (FC)", "setting": "[11]", "result": 20}, {"measurement": "IC50 at 48 h", "setting": "[12]", "result": 2.46, "unit": "µM"}, {"measurement": "IC50", "setting": "MCF7 [13]", "result": 1.16, "unit": "µM"}, {"measurement": "inhibition", "setting": "Oryctolagus cuniculus", "result": 10, "unit": "%"}, {"measurement": "inhibition", "setting": "Oryctolagus cuniculus; tested as the 2H-labelled form", "result": 13, "unit": "%"}, {"measurement": "Activity", "setting": "HCC1937 [14]", "result": "inactive"}, {"measurement": "inhibition", "setting": "[15]", "result": 21, "unit": "%"}, {"measurement": "inhibition", "setting": "[15]; tested as the 2H-labelled form", "result": 16, "unit": "%"}, {"measurement": "Activity", "setting": "4T1 [16]", "result": "inactive"}, {"measurement": "IC50", "setting": "A549", "result": 1.3, "unit": "µM"}, {"measurement": "Activity", "setting": "MCF7 [17]", "result": "Active"}, {"measurement": "Activity", "setting": "HCC1937 [18]", "result": "Active"}, {"measurement": "Activity", "setting": "MCF7 [19]", "result": "Active"}, {"measurement": "Activity", "setting": "4T1 [20]", "result": 42.8, "unit": "%"}, {"measurement": "IC50", "setting": "HCC1937 [21]", "result": 0.33, "unit": "µM"}, {"measurement": "Activity", "setting": "4T1 [22]", "result": "Active"}, {"measurement": "IC50", "setting": "MDA-MB-231", "result": 0.51, "unit": "µM"}, {"measurement": "Activity", "setting": "H9c2 [23]", "result": "inactive"}, {"measurement": "Activity", "setting": "HCC1937 [24]", "result": "Active"}, {"measurement": "IC50", "setting": "Pyruvate kinase PKM [25]", "result": 0.35, "unit": "µM"}, {"measurement": "EC50", "setting": "[26]", "result": 3490, "unit": "µM"}, {"measurement": "Activity", "setting": "4T1 [27]", "result": "Active"}, {"measurement": "fold change (FC)", "setting": "[28]", "result": 4}, {"measurement": "Activity", "setting": "H9c2 [29]", "result": "inactive"}, {"measurement": "IC50", "setting": "4T1 [30]", "result": 0.32, "unit": "µM"}, {"measurement": "Activity", "setting": "H9c2 [31]", "result": "inactive"}, {"measurement": "inhibition", "setting": "Pyruvate kinase PKM [32]", "result": 13, "unit": "%"}, {"measurement": "inhibition", "setting": "Pyruvate kinase PKM [32]; tested as the 2H-labelled form", "result": 10, "unit": "%"}, {"measurement": "Activity", "setting": "HCC1937 [33]", "result": "Active"}, {"measurement": "inhibition", "setting": "Pyruvate kinase PKM [34]", "result": "Dose-Dependent Effect"}]}]}
